Test results from patent US9296778B2, “3′,5′-cyclic phosphate prodrugs for HCV infection” (Idenix Pharmaceuticals, Inc., priority 2012, dated 2016).
Where two headings read alike, the source gives them in different places.

Legend:
[1] = Stability in simulated gastric fluid; format: in vitro ADME; conditions: 100 μM, 2 hours at 37° C., percent of the peak area at time zero
Procedure: Simulated gastric and intestinal fluids containing pepsin and pancreatin respectively were prepared according to the U.S. Pharmacopoeia USP291 procedure (www.pharmacopeia.cn/v29240/usp29nf24s0_ris1s126.html). Compounds (final concentration 100 μM) were incubated in duplicate in the appropriate fluid for 2 hours at 37° C. The samples were quenched with 200 μl cold acetonitrile, vortexed for 30 seconds and then centrifuged at 16,100 g for 10 min. The supernatants were analyzed by HPLC on a C-18 column with UV detection at 252 nm. The time 0 samples were prepared by adding SGF or SIF fluid to the quenching solvent followed by the test compound. Stability of the compounds was determined by peak area of the test compounds after incubation and calculated as percent of the peak area observed at time zero.

fresh human hepatocytes = assay: Release of active metabolite in fresh human hepatocytes; format: in vitro ADME; conditions: 10 μM compound; for FHH TP Cmax: fresh human hepatocytes; for FHH TP AUC: fresh human hepatocytes, 6, 24 and 48 hours
Procedure, shortened: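 Overnight-acclimatized hepatocytes (0.8 million cells/well human, 0.5 million mouse) incubated at 37 °C with 10 μM test compound (0.1% DMSO). Sampled at 6, 24, 48 h (human) or 1, 4, 8, 12, 24 h (mouse); cells washed, extracted in cold 70% methanol, intracellular content quantified by LC-MS/MS with internal standard.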

Stability in mouse blood = format: in vitro ADME; conditions: on ice, percent unchanged test compound
Procedure, shortened: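 Test compound at 0.5 μM final in whole blood, held on ice; sampled at 0, 0.5 and 1 hr in triplicate. Samples quenched with acetonitrile containing internal standard and analysed by LC-MS/MS; percent unchanged compound from peak area ratio to internal standard.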

[2] = Stability in fresh human whole blood; format: in vitro ADME; conditions: 0.5 μM, percent unchanged test compound
Procedure, shortened: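 Test compound at 0.5 μM was incubated at 37 °C in fresh human K2EDTA whole blood, stored at 2–8 °C and used within 7 days, in triplicate. Samples taken at 0, 0.5, 1 and 2 h were quenched in cold acetonitrile containing internal standard and analysed by LC-MS/MS. Percent unchanged compound was derived from peak-area ratios.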

[3] = Stability in simulated intestinal fluid; format: in vitro ADME; conditions: 100 μM, 2 hours at 37° C., percent of the peak area at time zero
Procedure, shortened: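 Compounds at 100 μM final, in duplicate, kept 2 h at 37° C in USP gastric fluid (pepsin) or intestinal fluid (pancreatin). Quenched with cold acetonitrile, supernatant analysed by C-18 HPLC, UV 252 nm. Remaining compound expressed as percent of time-zero peak area.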

HCV genotype 1b replicon = assay: HCV Replicon Assay; format: cell-based; conditions: Zluc cells (Huh-7-derived, HCV genotype 1b replicon, luciferase reporter), 72 hours; read-out: HCV Replicon EC50
Procedure, shortened: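 Zluc Huh-7 cells with HCV genotype 1b replicon and luciferase reporter treated with 5-fold dilutions (100 μM to 0.0000512 μM final) in duplicate, or at 1 and 10 μM. Luminescence read with ONE-glo; EC50 from dose-response fits, or % inhibition at the fixed concentrations.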

[4] = Stability in liver subcellular fractions (microsomes); format: in vitro ADME, human; conditions: 10 μM, 1.0 mg/mL microsomal protein, NADPH, 60 min, percent unchanged test compound
Procedure: Stability of compounds were determined in subcellular fractions (microsomes) of human liver in duplicate for each matrix. Pooled liver microsomal proteins (1.0 mg/mL), suspended in incubation buffer (100 mM potassium phosphate, pH 7.4, 5 mM MgCl2, and 0.1 mM EDTA), were preincubated for 5 min at 37° C. with 10 μM of a test compound from a 10 mM stock solution in DMSO (final DMSO concentration was 0.1%); the reaction was initiated by the addition of NADPH (3 mM final concentration). At specific times (0 and 60 min), 0.1 mL samples were taken and the reaction terminated by the addition of 4 volumes of stop solution (acetonitrile with 500 ng/mL carbutamide as an internal standard). The samples were vortexed for 30 sec and then centrifuged at 16,000 g for 10 min. 100 μL of supernatants were transferred to 96 deep-well plates preloaded with 100 μL distilled water and analyzed after mixing by LC-MS/MS. The MS peak area ratio of the test compounds versus the internal standard was calculated and percent unchanged test compound over 60 minutes was calculated using this ratio.

Zluc cells [5] = assay: cytotoxicity evaluation (CellTiter-Blue Cell Viability Assay); conditions: read-out: HCV Replicon CC50; Zluc cells, CellTiter-Blue
Zluc cells [6] = test system: Zluc cells
Huh-7 cells = assay: Release of active metabolite in Huh-7 cells; format: in vitro ADME, human; conditions: 10 μM compound
Procedure: Huh-7 cells were plated in 1 mL culture medium (DMEM, containing glucose, L-glutamine and sodium pyruvate, 10% FBS, 100 IU/mL penicillin, 100 μg/mL streptomycin, 2 mM GlutaMAX, 1% MEM non-essential amino acids) at the concentration 0.8, 0.4 and 0.2 million cells per well on 6 well plates for 24, 48 and 72 hr treatment, respectively. Plated cells were incubated overnight at 37° C. in an incubator.
The following morning compounds was diluted to 20 μM from a stock solution in DMSO in fresh culture medium pre-warmed to 37° C. and 1 mL of the solution/well was added to cells. A final medium volume per well was 2.0 mL, Compound concentration in well was 10 μM and final DMSO concentration was 0.1%.
After 24, 48 or 72 hr, the medium was carefully removed and cell monolayers were washed twice with 2 mL ice-cold PBS per well. Following the last wash, all PBS was carefully removed and 1.0 mL of extraction solution (ice-cold 70% methanol) added. The plate was tightly covered with Parafilm, plastic plate cover and Parafilm again and an intracellular content was extracted at −20° C. for 24 hr.
After 24 hr extracts were transferred into polypropylene microfuge tubes and dried on a refrigerated centrivap concentrator. Dry residues were reconstituted in 250 μL of HPLC-grade water and centrifuged at 16,000×g for 10 min. Aliquots (100 μL each) of the supernatants were transferred into a 96 well plate and internal standard (4 ng/mL final concentration) was added as the internal standard (IS) for LC-MS/MS analysis.

cathepsin A (CatA) = molecular target: T1, cathepsin A (CatA) (Homo sapiens, UniProt P10619); assay: CatA hydrolysis assay; format: in vitro ADME
T1 construct: purchased R & D Systems (Minneapolis, Minn.)
T1 sequence (P10619 29-326 limits assumed): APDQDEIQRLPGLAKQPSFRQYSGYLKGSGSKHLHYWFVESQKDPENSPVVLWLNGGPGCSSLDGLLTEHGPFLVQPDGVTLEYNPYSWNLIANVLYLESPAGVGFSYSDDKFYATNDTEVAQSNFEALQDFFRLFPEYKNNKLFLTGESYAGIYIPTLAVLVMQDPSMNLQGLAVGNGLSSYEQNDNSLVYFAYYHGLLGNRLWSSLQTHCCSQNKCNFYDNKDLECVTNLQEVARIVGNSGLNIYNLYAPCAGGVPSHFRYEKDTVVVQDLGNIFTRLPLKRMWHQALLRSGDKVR
T1 sequence (P10619 327-480 limits assumed): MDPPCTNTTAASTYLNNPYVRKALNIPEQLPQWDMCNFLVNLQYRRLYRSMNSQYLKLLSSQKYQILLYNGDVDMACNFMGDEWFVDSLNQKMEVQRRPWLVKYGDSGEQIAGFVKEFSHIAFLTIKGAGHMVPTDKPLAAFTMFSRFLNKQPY
Procedure: CatA, cathepsin L (CatL) and CES1 were purchased from R & D Systems (Minneapolis, Minn.). Prior to the enzymatic hydrolysis reactions, CatA was activated according to the manufacturer's instruction. Briefly, CatA (0.05 μg/μL) was incubated with CatL (0.005 μg/μL) for 30 min at 37° C. in 25 mM MES pH 6.0 containing 5 mM DTT. The reaction was stopped by addition of the CatL specific inhibitor E64 (10 μM).
The CatA assay was performed at 37° C. The reaction mixture contained 25 mM MES buffer pH 6.0, 100 mM NaCl, 4 mM DTT and 100 μM of the compound. The reaction was started by addition of the activated CatA enzyme to a final concentration of 0.005 μg/μL. One hundred-μL aliquots were taken after 0.5 min, 3 hrs and 18 hrs of incubation. Reactions were stopped by mixing the sample with an equal volume of ice-cold methanol, and were loaded on a HPLC for analysis.
(§1) Samples were analyzed by HPLC using 5μ C-18, 4.6×250 mm Phenomenex® Columbus column (Phenomenex USA, CA). The mobile phase consisted of buffer A (25 mM potassium phosphate with 5 mM tetrabutylammonium dihydrogen phosphate pH 6.3) and buffer B (100% methanol).

[7] = molecular target: T2, carboxylesterase 1 (CES1) (Homo sapiens, UniProt P23141); assay: CES1 hydrolysis assay; format: in vitro ADME
T2 construct: purchased R & D Systems (Minneapolis, Minn.)
T2 sequence (P23141 18-567): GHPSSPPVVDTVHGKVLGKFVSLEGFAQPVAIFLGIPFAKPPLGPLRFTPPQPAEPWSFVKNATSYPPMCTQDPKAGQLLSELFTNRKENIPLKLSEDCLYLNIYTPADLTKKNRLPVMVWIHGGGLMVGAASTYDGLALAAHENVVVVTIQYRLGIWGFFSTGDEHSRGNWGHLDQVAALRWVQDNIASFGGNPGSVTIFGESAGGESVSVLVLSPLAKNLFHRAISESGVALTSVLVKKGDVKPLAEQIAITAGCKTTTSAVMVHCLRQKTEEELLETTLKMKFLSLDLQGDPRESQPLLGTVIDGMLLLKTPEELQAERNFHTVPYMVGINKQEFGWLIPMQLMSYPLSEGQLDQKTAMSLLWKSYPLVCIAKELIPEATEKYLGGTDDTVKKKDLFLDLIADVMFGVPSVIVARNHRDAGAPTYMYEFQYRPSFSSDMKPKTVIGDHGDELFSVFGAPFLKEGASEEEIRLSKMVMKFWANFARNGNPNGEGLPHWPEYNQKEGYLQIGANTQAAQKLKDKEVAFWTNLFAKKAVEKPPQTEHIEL
Procedure: CES1 assay was performed at 37° C. in the reaction mixture containing 50 mM Tris/HCl buffer pH 7.5 and 100 μM of the compound. Reaction was started by addition of the CES1 to the final concentration 0.01 μg/mL. 100 μL aliquots were taken after 0.5 min, 3 hrs and 21 hrs of the incubation and the reaction was stopped by mixing with 100 μl of the ice-cold methanol prior to HPLC analysis.
as §1

CCOC(=O)COP1(=O)OC[C@H]2O[C@@H](n3cnc4c(OCC)nc(N)nc43)[C@](C)(F)[C@@H]2O1 (single isomer, unassigned; diastereomer 1) [Compound 7 Diastereomer 1]
Stability SGF [1]: 87%
FHH TP Cmax (fresh human hepatocytes): 31 pmol/mill cells
FHH TP AUC (fresh human hepatocytes): 377 pmol · hr/mill cells
Stability WB_Mouse (ice; 1 hr) (Stability in mouse blood): 1%
Stability WB_Human (37° C.; 2 hr) [2]: 25%
Stability SIF [3]: 50%
EC50 (HCV genotype 1b replicon): < 250 nM
Stability HLM (1 hr) [4]: 0.5%
CC50 (Zluc cells [5]): > 50 µM

CCOc1nc(N)nc2c1ncn2C1OC2COP(=O)(OCC(NC(=O)OC)C(C)(C)C)OC2C1(C)F (single isomer, unassigned; diastereomer 1) [Compound 10 Diastereomer 1]
CC50 (Zluc cells [6]): > 50 µM
EC50 (HCV genotype 1b replicon): 250 to 1000 nM

CCOc1nc(N)nc2c1ncn2C1OC2COP(=O)(Oc3ccc(CC(NC(=O)OC)C(=O)OC(C)C)cc3)OC2C1(C)F (single isomer, unassigned; diastereomer 1) [Compound 13 Diastereomer 1]
FHH TP Cmax (fresh human hepatocytes): 44 pmol/mill cells
FHH TP AUC (fresh human hepatocytes): 1632 pmol · hr/mill cells
Stability WB_Mouse (ice; 1 hr) (Stability in mouse blood): 1%
Stability WB_Human (37° C.; 2 hr) [2]: 29%
Stability SIF [3]: 72%
EC50 (HCV genotype 1b replicon): < 250 nM
Stability HLM (1 hr) [4]: 0.4%
CC50 (Zluc cells [5]): > 50 µM

CCOc1nc(N)nc2c1ncn2[C@@H]1O[C@@H]2COP(=O)(OCCSSC(C)(C)C)O[C@H]2[C@@]1(C)O (single isomer, unassigned; diastereomer 1) [Compound 23 Diastereomer 1]
CC50 (Zluc cells [6]): < 50 µM
EC50 (HCV genotype 1b replicon): < 250 nM

CCOC(=O)CCCOP1(=O)OC[C@H]2O[C@@H](n3cnc4c(OC)nc(N)nc43)[C@](C)(O)[C@@H]2O1 (single isomer, unassigned; diastereomer 1) [Compound 25 Diastereomer 1]
FHH TP Cmax (fresh human hepatocytes): 1137 pmol/mill cells
FHH TP AUC (fresh human hepatocytes): 2245 pmol · hr/mill cells
Huh-7 TP (24 hr) (Huh-7 cells; 24 hr): 25
Huh-7 TP (48 hr) (Huh-7 cells; 48 hr): 28
Huh-7 TP (72 hr) (Huh-7 cells; 72 hr): 36
Huh-7 TP AUC (Huh-7 cells; Huh-7 cells): 1697 pmol/mill cells

CCOc1nc(N)nc2c1ncn2[C@@H]1O[C@@H]2COP(=O)(OCCSC(=O)C(C)(C)CO)O[C@H]2[C@@]1(C)OC(C)=O (single isomer, unassigned; diastereomer 2) [Compound 16 Diastereomer 2]
CC50 (Zluc cells [6]): < 50 µM
EC50 (HCV genotype 1b replicon): < 250 nM

CC(C)OC(=O)[C@H](C)N[P@@](=O)(OC[C@H]1O[C@@H](n2ccc(=O)[nH]c2=O)[C@](C)(F)[C@@H]1O)Oc1ccccc1 [PSI-7076]
hydrolysis by CatA (in words) (cathepsin A (CatA)): hydrolyzed
hydrolysis by CES1 (in words) [7]: hydrolyzed
